Experiments:
[1] = Stability in mouse serum at 37 °C (RCP by radio-HPLC); assay type: in vitro ADME; details: 4 h
Description: (§1) The complexes were determined by ITLC/SG of the ACD system and radio-HPLC. The ITLC/SG trip was cut into 10 equal parts, and radioactive counting of ITLC strips was determined by a γ-counter. ITLC results of both complexes were as follows: in ACD solution, [^99mTc]Tc-CN5FA and [^99mTc]Tc-CNPFA stayed at the origin (Rf = 0–0.1), while ^99mTcO4^− (Rf = 0.9–1.0) and ^99mTcO2·nH2O (Rf = 0.8–1.0) were moved to the front. Radio-HPLC was analyzed by a mobile phase system consisting of 0.1% TFA water (solvent A) and 0.1% TFA acetonitrile (solvent B) with a gradient of 0−2 min 10% B, 2−5 min 10%−90% B, 10−20 min 90% B, and 20−25 min 90%−10% B (system B) at a flow rate of 1 mL/min. All experiments were performed in triplicate.
(§2) The stability of [^99mTc]Tc-CN5FA and [^99mTc]Tc-CNPFA in vitro was evaluated by measuring the RCP of the complexes. Stability in saline was achieved by holding the solution at room temperature for 4 h. Stability in the serum was achieved by mixing 100 μL of [^99mTc]Tc-CN5FA or [^99mTc]Tc-CNPFA with 200 μL of mouse serum at 37 °C for 4 h. After precipitation using acetonitrile, centrifugation, and concentration, the solutions were analyzed by radio-HPLC.

[2] = Stability in saline / radiolabeling solution at room temperature (RCP by radio-HPLC); assay type: physicochemical; details: 4 h
Description: as §1, §2

KB tumor-bearing mice [3] = assay: Biodistribution study in KB tumor-bearing mice; assay type: in vivo, BALB/c nude mice; details: for Tumor uptake: KB tumor
Description: The biodistribution experiments were divided into normal groups and inhibition groups (n = 3), in which the inhibition group was injected with inhibitor (about 4 × 10^4 µg/kg) 30 min in advance. The KB tumor-bearing mice were decapitated 30 and 120 min after the tail vein injection of 0.1 mL labeled solution (about 7.4 × 10^4 Bq). The heart, liver, lung, kidney, spleen, stomach, bone, muscle, intestine, tumor, blood, and other related tissues and organs were wiped clean and weighed, and the radioactivity count was measured. Each tissue per gram of injection dose (%ID/g) was calculated.

[4] = target: T1, folate receptor (KB cells) (Homo sapiens, UniProt P15328); assay: In vitro competitive binding with KB cells; details: 37 °C, 2 h, competitive binding with inhibitor
T1 construct: endogenous in cells; host or cells: KB cells
T1 sequence (P15328 25-257): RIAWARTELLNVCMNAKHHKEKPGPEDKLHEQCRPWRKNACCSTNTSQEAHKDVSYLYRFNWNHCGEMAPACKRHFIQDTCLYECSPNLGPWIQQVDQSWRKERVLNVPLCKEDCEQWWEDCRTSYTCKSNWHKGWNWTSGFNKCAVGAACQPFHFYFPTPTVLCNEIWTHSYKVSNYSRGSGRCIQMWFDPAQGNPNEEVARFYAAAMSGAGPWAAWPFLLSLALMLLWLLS
Description: KB cells were cultured with FFRPMI 1640 medium 24 h in advance on a 48-well plate with 5 × 10^4 cells per well. The labeling solution was diluted to 5 μCi/mL with the same medium after growing, and the inhibitor was prepared at different concentrations. The 48-well plates were divided into eight groups, and each group was incubated with 100 μL of inhibitor solution, 100 μL of diluted labeled solution (5 μCi/mL), and 200 μL of medium at 37 °C for 2 h.
After removing the cell plate from the incubator, the medium was removed, and the cells were washed with PBS (0.1 M, pH 7.4). The washed cells were lysed with NaOH (1 M) for 5 min. Pyrolysates were collected in the hoses, and the radioactivity count of each hose was measured by a γ-counter. The data were analyzed with GraphPad Prism 5.0 and nonlinearly fit to the log IC50 ± SD value.

KB tumor-bearing mice [5] = assay: SPECT/CT imaging study in KB tumor-bearing mice; assay type: in vivo, BALB/c nude mice; details: 2 h post injection, about 18.5 MBq i.v.
Description: The SPECT/CT imaging experiments were also divided into a normal group and an inhibition group (n = 3). The labeled solution (about 18.5 MBq) was injected into the tail vein of nude mice bearing KB tumor. The inhibition group was injected with 100 µg FA (about 4 × 10^4 µg/kg) 30 min in advance. After 2 h, the SPECT/CT scan was performed in anesthetized mice by using 1.5% isoflurane. The SPECT acquisition (peak value 140 keV, 20% width, 90° rotation, MMP 919 Collimator) was performed after 4 min of CT scanning (512 views, 2 × 2 binding, 75 kV, exposure time 230 ms). SPECT/CT images were made using HiSPECT software and vivoquant 2.5 software.

[6] = Partition coefficient, 1-octanol / phosphate buffer pH 7.4; assay type: physicochemical; details: 1-octanol / phosphate buffer 0.025 M
Description: The partition coefficient was measured as follows: 1.9 mL of phosphate buffer solution (0.025 M, pH 7.4), 2.0 mL of 1-octanol, and 0.1 mL of ^99mTc-CN5FA or ^99mTc-CNPFA solution were added to the centrifuge tube, and the sample was swirled for 5 min and centrifuged for 5 min (3000 r/min). Then, the radioactivity counts of the two phases were measured by taking 0.1 mL from the organic phase and the water phase. The partition coefficient P was calculated. The final partition coefficient was expressed as log P ± SD.

[7] = 2 h p.i., block: FA about 4 × 10^4 µg/kg 30 min in advance

Structure (SMILES): [99Tc+].[C-]#[N+]CCOCCOCCOCCOCCC(=O)NCCNC(=O)CC[C@H](NC(=O)c1ccc(NCc2cnc3nc(N)[nH]c(=O)c3n2)cc1)C(=O)O.[C-]#[N+]CCOCCOCCOCCOCCC(=O)NCCNC(=O)CC[C@H](NC(=O)c1ccc(NCc2cnc3nc(N)[nH]c(=O)c3n2)cc1)C(=O)O.[C-]#[N+]CCOCCOCCOCCOCCC(=O)NCCNC(=O)CC[C@H](NC(=O)c1ccc(NCc2cnc3nc(N)[nH]c(=O)c3n2)cc1)C(=O)O.[C-]#[N+]CCOCCOCCOCCOCCC(=O)NCCNC(=O)CC[C@H](NC(=O)c1ccc(NCc2cnc3nc(N)[nH]c(=O)c3n2)cc1)C(=O)O.[C-]#[N+]CCOCCOCCOCCOCCC(=O)NCCNC(=O)CC[C@H](NC(=O)c1ccc(NCc2cnc3nc(N)[nH]c(=O)c3n2)cc1)C(=O)O.[C-]#[N+]CCOCCOCCOCCOCCC(=O)NCCNC(=O)CC[C@H](NC(=O)c1ccc(NCc2cnc3nc(N)[nH]c(=O)c3n2)cc1)C(=O)O [[^99mTc]Tc-CNPFA]
- RCP after incubation [1]: more than 95%
- RCP after incubation [2]: more than 95%
- T/B (tumor/blood ratio) (KB tumor-bearing mice [3]; 0.5 h p.i.): 1.02
- T/M (tumor/muscle ratio) (KB tumor-bearing mice [3]; 0.5 h p.i.): 2.82
- Blood uptake (KB tumor-bearing mice [3]; 0.5 h p.i., i.v., n = 3): 4.08 ± 0.54 %ID/g
- Bone uptake (KB tumor-bearing mice [3]; 0.5 h p.i., i.v., n = 3): 1.77 ± 0.06 %ID/g
- Heart uptake (KB tumor-bearing mice [3]; 0.5 h p.i., i.v., n = 3): 1.92 ± 0.06 %ID/g
- Intestines uptake (KB tumor-bearing mice [3]; 0.5 h p.i., i.v., n = 3): 4.98 ± 1.57 %ID/g
- Kidney uptake (KB tumor-bearing mice [3]; 0.5 h p.i., i.v., n = 3): 81.30 ± 4.69 %ID/g
- Liver uptake (KB tumor-bearing mice [3]; 0.5 h p.i., i.v., n = 3): 15.84 ± 1.19 %ID/g
- Lung uptake (KB tumor-bearing mice [3]; 0.5 h p.i., i.v., n = 3): 4.01 ± 0.30 %ID/g
- Muscle uptake (KB tumor-bearing mice [3]; 0.5 h p.i., i.v., n = 3): 1.48 ± 0.07 %ID/g
- Spleen uptake (KB tumor-bearing mice [3]; 0.5 h p.i., i.v., n = 3): 3.65 ± 0.72 %ID/g
- Stomach uptake (KB tumor-bearing mice [3]; 0.5 h p.i., i.v., n = 3): 6.67 ± 0.73 %ID/g
- Thyroid uptake (KB tumor-bearing mice [3]; 0.5 h p.i., i.v., n = 3): 0.08 ± 0.02 %ID
- T/B (tumor/blood ratio) (KB tumor-bearing mice [3]; 2 h p.i.): 1.73
- T/M (tumor/muscle ratio) (KB tumor-bearing mice [3]; 2 h p.i.): 3.01
- Blood uptake (KB tumor-bearing mice [3]; [7]): 1.97 ± 0.34 %ID/g
- Bone uptake (KB tumor-bearing mice [3]; [7]): 1.02 ± 0.10 %ID/g
- Heart uptake (KB tumor-bearing mice [3]; [7]): 0.81 ± 0.12 %ID/g
- Intestines uptake (KB tumor-bearing mice [3]; [7]): 1.70 ± 0.22 %ID/g
- Kidney uptake (KB tumor-bearing mice [3]; [7]): 37.60 ± 2.46 %ID/g
- Liver uptake (KB tumor-bearing mice [3]; [7]): 10.88 ± 1.03 %ID/g
- Lung uptake (KB tumor-bearing mice [3]; [7]): 2.11 ± 0.28 %ID/g
- Muscle uptake (KB tumor-bearing mice [3]; [7]): 0.51 ± 0.09 %ID/g
- Spleen uptake (KB tumor-bearing mice [3]; [7]): 3.30 ± 0.66 %ID/g
- Stomach uptake (KB tumor-bearing mice [3]; [7]): 2.18 ± 0.22 %ID/g
- Thyroid uptake (KB tumor-bearing mice [3]; [7]): 0.05 ± 0.01 %ID
- Blood uptake (KB tumor-bearing mice [3]; 2 h p.i., i.v., n = 3): 1.46 ± 0.03 %ID/g
- Bone uptake (KB tumor-bearing mice [3]; 2 h p.i., i.v., n = 3): 0.79 ± 0.11 %ID/g
- Heart uptake (KB tumor-bearing mice [3]; 2 h p.i., i.v., n = 3): 1.30 ± 0.09 %ID/g
- Intestines uptake (KB tumor-bearing mice [3]; 2 h p.i., i.v., n = 3): 1.60 ± 0.24 %ID/g
- Kidney uptake (KB tumor-bearing mice [3]; 2 h p.i., i.v., n = 3): 80.25 ± 1.23 %ID/g
- Liver uptake (KB tumor-bearing mice [3]; 2 h p.i., i.v., n = 3): 10.39 ± 0.23 %ID/g
- Lung uptake (KB tumor-bearing mice [3]; 2 h p.i., i.v., n = 3): 2.04 ± 0.06 %ID/g
- Muscle uptake (KB tumor-bearing mice [3]; 2 h p.i., i.v., n = 3): 0.84 ± 0.04 %ID/g
- Spleen uptake (KB tumor-bearing mice [3]; 2 h p.i., i.v., n = 3): 2.85 ± 0.26 %ID/g
- Stomach uptake (KB tumor-bearing mice [3]; 2 h p.i., i.v., n = 3): 3.65 ± 0.75 %ID/g
- Thyroid uptake (KB tumor-bearing mice [3]; 2 h p.i., i.v., n = 3): 0.06 ± 0.01 %ID
- Tumor uptake (KB tumor-bearing mice [3]; 0.5 h p.i., i.v., n = 3): 4.18 ± 0.36 %ID/g
- Tumor uptake (KB tumor-bearing mice [3]; [7]): 1.62 ± 0.08 %ID/g
- Tumor uptake (KB tumor-bearing mice [3]; 2 h p.i., i.v., n = 3): 2.53 ± 0.12 %ID/g
- IC50 [4]: 3.8 ± 0.07 nM
- Visualization of tumor lesions by SPECT/CT (KB tumor-bearing mice [5]): clearly visualized
- log P [6]: −2.28 ± 0.02

Source: paper PMC8348780, “Preparation and Evaluation of Novel Folate Isonitrile ^99mTc Complexes as Potential Tumor Imaging Agents to Target Folate Receptors” (Molecules, 2021)
